# Values of other authors in patent publication US20170003257A1, “WETNESS INDICATOR WITH TWO COLORANTS AND TWO STABILIZERS” (The Procter & Gamble Company, priority 2015, published 2017).
# Conditions: Alkaline pH range
row,SMILES,pKa
1,CN(C)c1ccc(C(=C2C=CC(=[N+](C)C)C=C2)c2ccccc2)cc1 [Malachite Green],12.8

# Same assay, conditions: Table 1 colorants
row,pKa,SMILES
1,9.7,CC[N+](CC)=c1ccc2nc3c(cc(N)c4ccccc43)oc-2c1 [Nile Blue]
2,5.1,O=c1ccc2[n+]([O-])c3ccc(O)cc3oc-2c1 [Resazurin]
3,9.8,Cc1cc(O)c(C(C)C)cc1C1(c2cc(C(C)C)c(O)cc2C)OC(=O)c2ccccc21 [Thymolphthalein]

# Conditions: Table 2 stabilizers, fifth pKa
row,pKa (5),SMILES
1,6.7,"O=C(O)CN(CCN(CC(=O)O)CC(=O)O)CC(=O)O [Ethylenediaminetetraacetic acid (EDTA), Ethylenediaminetetraacetic acid]"

# Same assay, conditions: Table 2 stabilizers, first pKa
row,SMILES,pKa (1)
1,N=C(N)NCCC[C@H](N)C(=O)O [Arginine],1.8
2,CCCCCCCN [Heptylamine],10.7
3,NCCN [Ethylenediamine],6.8
4,"O=C(O)CN(CCN(CC(=O)O)CC(=O)O)CC(=O)O [Ethylenediaminetetraacetic acid (EDTA), Ethylenediaminetetraacetic acid]",−0.21
5,C[N+](C)(C)CC(=O)O [Betaine],1.83
6,O=C(O)c1cncc(C(=O)O)c1 [Dinicotinic acid],2.8
7,CC(=NO)C(C)=NO [Dimethylglyoxime],10.7
8,O=C(O)c1ccncc1 [4-Pyridinecarboxylic acid],5.0
9,CCCCCCN [Hexylamine],10.6
10,Oc1ccc(O)cc1 [Hydroquinone],10.3
11,CCCCCCCCCCN [Decylamine],10.6
12,NCCCCCCN [Hexamethylenediamine],11.9
13,CC(C)CCC(=O)O [4-Methylpentanoic acid],4.8
14,CC(=O)CC(=O)O [Acetoacetic acid],3.6
15,Oc1ccccc1O [Catechol],9.4
16,O=C(O)C(O)CO (stereo not shown) [Glyceric acid],3.5
17,O=C(O)CCCCCC(=O)O [Heptanedioic acid],4.7
18,O=CC(=O)O [Glyoxylic acid],3.2
19,OB(O)O [Boric acid],9.3

# The remaining lines, values ahead:
row,pKa (1),SMILES
1,3.9,Cc1ccccc1C(=O)O [o-Toluic acid]
2,1.1,O=C(O)c1ccccn1 [Picolinic acid]
3,9.8,NCCc1ccc(O)cc1 [Tyramine]
4,1.8,NC(C(=O)O)c1ccccc1 (stereo not shown) [Phenylglycine]
5,3.9,O=c1[nH]c(=O)c2[nH]c(=O)[nH]c2[nH]1 [Uric acid]
6,4.4,Cc1ccc(C(=O)O)cc1 [p-Toluic acid]
7,9.4,Oc1ccccc1O [Pyrocatechol]
8,9.3,Oc1cccc(O)c1 [Resorcinol]

# Same assay, conditions: Table 2 stabilizers, fourth pKa
row,pKa (4),SMILES
1,3.1,"O=C(O)CN(CCN(CC(=O)O)CC(=O)O)CC(=O)O [Ethylenediaminetetraacetic acid (EDTA), Ethylenediaminetetraacetic acid]"

# Same assay, conditions: Table 2 stabilizers, second pKa
row,SMILES,pKa (2)
1,"O=C(O)CN(CCN(CC(=O)O)CC(=O)O)CC(=O)O [Ethylenediaminetetraacetic acid (EDTA), Ethylenediaminetetraacetic acid]",1.5
2,CC(=NO)C(C)=NO [Dimethylglyoxime],12.0
3,NCCCCCCN [Hexamethylenediamine],10.8
4,O=C1O[C@H]([C@@H](O)CO)C(O)=C1O [Ascorbic acid],11.8
5,N[C@@H](Cc1ccccc1)C(=O)O [Phenylalanine],9.3
6,Oc1ccccc1O [Catechol],12.8
7,OB(O)O [Boric acid],12.7

# Results, then the compound that gave them:
row,pKa (2),SMILES
1,9.0,N[C@@H](CO)C(=O)O [Serine]
2,5.2,O=C(O)c1ccccn1 [Picolinic acid]
3,10.5,NCCc1ccc(O)cc1 [Tyramine]
4,4.4,NC(C(=O)O)c1ccccc1 (stereo not shown) [Phenylglycine]
5,12.8,Oc1ccccc1O [Pyrocatechol]
6,11.1,Oc1cccc(O)c1 [Resorcinol]
7,7.2,O=S(O)O [Sulfurous acid]

# Same assay, conditions: Table 2 stabilizers, third pKa
row,pKa (3),SMILES
1,2.2,"O=C(O)CN(CCN(CC(=O)O)CC(=O)O)CC(=O)O [Ethylenediaminetetraacetic acid (EDTA), Ethylenediaminetetraacetic acid]"
2,13.8,OB(O)O [Boric acid]
